Laboratory results: patent EP1201248A2, “Combination therapy of angiotensin converting enzyme inhibitor, side-effect reduced amount of aldosterone antagonist and diuretic for treatment of cardiovascular disease” (priority 1995, dated 1996)

Tests used:
[1] = Human clinical trial of ACE inhibitor, spironolactone and loop diuretic: weight, vital signs and cardiac assessments; format: in vivo, humans; conditions: for Supine diastolic BP, Mean Change from Baseline to Week 12 / Supine pulse, Mean Change from Baseline to Week 12 / Supine systolic BP, Mean Change from Baseline to Week 12 / Weight, Mean Change from Baseline to Week 12: with stable ACE inhibitor and loop diuretic, spread in parentheses
Source text: Concurrent medication within the past 30 days. • 2. 12-lead ECG • 3. […] Signs and symptoms within the past 30 days.
All statistical methods were two-sided.

[2] = spironolactone 100 mg/day coadministered with an ACE inhibitor; congestive heart failure; cited from earlier work
[3] = spironolactone 50 mg/day to 100 mg/day (average 73 mg/day) and captopril; 90-patient study; cited from earlier work
[4] = cited from earlier work
[5] = Human clinical trial of ACE inhibitor, spironolactone and loop diuretic: clinical laboratory values and neurohormones
[6] = Human clinical trial of ACE inhibitor, spironolactone and loop diuretic: adverse events, hyperkalemia incidence, hospitalizations, deaths; conditions: patients previously at the 50 mg dose

Structure (SMILES): CC(=O)S[C@@H]1CC2=CC(=O)CC[C@]2(C)[C@H]2CC[C@@]3(C)[C@@H](CC[C@@]34CCC(=O)O4)[C@H]12 [Spironolactone, 17-hydroxy-7a-mercapto-3-oxo-17a-pregn-4-ene-21-carboxylic acid γ-lactone acetate]
- mean systolic and diastolic blood pressure, change ([1]; 25 mg, 50 mg and 75 mg groups, all visits, standing and supine): decreases in mean systolic and diastolic blood pressure
- body weight, change from baseline ([1]; 75 mg dose group, Day 9 and Week 4, not observed at later visits): more weight loss than other patients
- sodium retention score, dose response ([1]; Day 9 (p = 0.019), not seen at later visits (p >0.20)): higher doses showing more reduction in sodium retention score
- changes in loop diuretic therapy ([1]; Week 8 (p = 0.004), compared to the placebo group, not observed at Week 12): more patients on the higher doses of spironolactone had decreases in the loop diuretic dose
- Supine diastolic BP, Mean Change from Baseline to Week 12 ([1]; spironolactone 25 mg/d): -2.74 ( 9.57)
- Supine pulse, Mean Change from Baseline to Week 12 ([1]; spironolactone 25 mg/d): -1.40(10.00) BPM
- Supine systolic BP, Mean Change from Baseline to Week 12 ([1]; spironolactone 25 mg/d): -4.46(13.97)
- Weight, Mean Change from Baseline to Week 12 ([1]; spironolactone 25 mg/d): -0.16 (3.02)
- Supine diastolic BP, Mean Change from Baseline to Week 12 ([1]; spironolactone 50 mg/d): -5.11(11.11)
- Supine pulse, Mean Change from Baseline to Week 12 ([1]; spironolactone 50 mg/d): -3.21(11.27) BPM
- Supine systolic BP, Mean Change from Baseline to Week 12 ([1]; spironolactone 50 mg/d): -7.04(15.83)
- Weight, Mean Change from Baseline to Week 12 ([1]; spironolactone 50 mg/d): 0.62 (2.05)
- Supine diastolic BP, Mean Change from Baseline to Week 12 ([1]; spironolactone 75 mg/d): -5.91 (9.05)
- Supine pulse, Mean Change from Baseline to Week 12 ([1]; spironolactone 75 mg/d): -1.07(13.79) BPM
- Supine systolic BP, Mean Change from Baseline to Week 12 ([1]; spironolactone 75 mg/d): -5.68(15.62)
- Weight, Mean Change from Baseline to Week 12 ([1]; spironolactone 75 mg/d): -0.81 (2.70)
- NYHA Class, improvement ([1]; spironolactone groups vs placebo group): the difference was not statistically significant
- patients in whom treatment was highly effective [2]: 13 of 16
- control of refractory CHF [3]: effective to control refractory CHF without serious incidents of hyperkalemia
- fibrosis in hypertensive rats ([4]; cohort treated with spironolactone sub-cutaneously, side-by-side with a captopril cohort): found to prevent fibrosis in the hypertensive-rat cohort
- fibrosis in animal models ([4]; irrespective of left ventricular hypertrophy and hypertension): shown to prevent fibrosis in animal models
- PRA, change from baseline, dose-response ([5]; Day 9, Week 4 and Week 12 (P ≤0.001)): greater increases in PRA
- Urinary aldosterone excretion, change from baseline, dose response ([5]; Week 12 (p = 0.002)): Greater increases were seen at higher doses
- N-Terminal Atrial Natriuretic Factor (ANF), change from baseline ([5]; all active treatments, all treatment visits): decreases from baseline at all treatment visits
- serum potassium, change from baseline, dose-response ([5]; all treatment period visits (p <0.001)): larger increases in potassium
- deaths within 30 days after the study was completed [6]: Three patients died
